This assay relates to H37Rv. Description: microbe, parasite or virus in culture. Format: cell-based, Mycobacterium tuberculosis. As to conditions: for MIC: Mycobacterium tuberculosis, H37RV, read-out: MIC, strain H37Rv; for MIC, strain H37Rv: Table 2 prints no unit, test range in method b43 in μg/mL.

Values after ≈ are worked out from the molar mass of the structure shown.

In the case of `CO[C@H]1/C=C/O[C@@]2(C)Oc3c(C)c(O)c4c(O)c(c(/C=N/N5CCN(C)CC5)c(O)c4c3C2=O)NC(=O)/C(C)=C\C=C\[C@H](C)[C@H](O)[C@@H](C)[C@@H](O)[C@@H](C)[C@H](OC(C)=O)[C@@H]1C` [RMP, rifampicin], the MIC is < 0.03 mg/L.
Same read-out and setting: the figure for `NCC[C@H](O)C(=O)N[C@@H]1C[C@H](N)[C@@H](O[C@H]2O[C@H](CN)[C@@H](O)[C@H](O)[C@H]2O)[C@H](O)[C@H]1O[C@H]1O[C@H](CO)[C@@H](O)[C@H](N)[C@H]1O` [AMK, amikacin] is 0.5 mg/L (≈ 0.854 µM); for `O=[N+]([O-])c1cc(C(F)(F)F)cc2c(=S)nc(N3CCC4(CC3)OCCO4)sc12` [SKLB-TB1001, 8-nitro-2-(1,4-dioxa-8-azaspiro[4.5]decan-8-yl)-6-(trifluoromethyl)-4H-benzo[e][1,3]thiazine-4-thione] it is < 0.0156 mg/L; for `CC1COc2c(N3CCN(C)CC3)c(F)cc3c(=O)c(C(=O)O)cn1c23` (stereo not shown) [OFLX, ofloxacin] it is 0.5 mg/L (≈ 1.38 µM).
Still for that read-out and setting: the figure for `[H]/N=C(/N)N[C@H]1[C@H](O)[C@@H](O)[C@H](O[C@@H]2O[C@@H](C)[C@](O)(C=O)[C@H]2O[C@@H]2O[C@@H](CO)[C@H](O)[C@@H](O)[C@@H]2NC)[C@@H](N/C(N)=N\[H])[C@@H]1O` [SM, streptomycin] is 1 mg/L (≈ 1.72 µM); for `NNC(=O)c1ccncc1` [INH, isoniazid] it is 0.03 mg/L (≈ 0.219 µM); for `CC[C@@H](CO)NCCN[C@@H](CC)CO` [EMB, ethambutol] it is 1 mg/L (≈ 4.89 µM).
On the same count and under the same terms, the figure for `COc1c(N2C[C@@H]3CCCN[C@@H]3C2)c(F)cc2c(=O)c(C(=O)O)cn(C3CC3)c12` [MOX, moxifloxacin] is 0.06 mg/L (≈ 0.149 µM).
Take `C[C@H]1COc2c(N3CCN(C)CC3)c(F)cc3c(=O)c(C(=O)O)cn1c23` [LVFX, levo-ofloxacin]: the “MIC, strain H37Rv” value amounted to 0.25 mg/L (≈ 0.692 µM).
With `NC[C@H]1O[C@H](O[C@H]2[C@H](O)[C@@H](O[C@H]3O[C@H](CO)[C@@H](O)[C@H](N)[C@H]3O)[C@H](N)C[C@@H]2N)[C@H](O)[C@@H](O)[C@@H]1O` [KM, kanamycin], the “MIC, strain H37Rv” value is 1 mg/L (≈ 2.06 µM).

The values above are taken from PMC4942819 (Scientific Reports, 2016).
